# Test results as given in patent publication US11851391B2, “Antifungal compounds and methods of forming the same” (University of Kentucky Research Foundation, priority 2018, dated 2023).
# Read-outs that look alike come from different tables or passages of the source.
# How the values were obtained:
# [1] = test system: C. albicans ATCC 90819(R) (strain D); experiment: MIC determination, in vitro antifungal assay (CLSI M27-A3); format: cell-based, Candida albicans; details: Candida albicans, ATCC90819, 48 h, MIC-0, 48 h at 35° C., read-out: MIC
# Experimental: (§1) The activity of N,N′-diaryl-bishydrazones 7-22 was tested against a panel of seven strains of C. albicans: ATCC 10231(R) (A), ATCC 64124(R) (B), ATCC MYA-2876(S) (C), ATCC 90819(R) (D), ATCC MYA-2310(S) (E), ATCC MYA-1237(R) (F), and ATCC MYA-1003(R) (G). The activity of these bishydrazones 7-22 was also explored against a panel of three non-albicans Candida strains: C. glabrata ATCC 2001 (H), C. krusei ATCC 6258 (I), and C. parapsilosis ATCC 22019 (J). Finally, the activity of these bishydrazones 7-22 was explored against three Aspergillus strains: A. flavus ATCC MYA-3631 (K), A. nidulans ATCC 38163 (L), and A. terreus ATCC MYA-3633 (M).
# (§2) Candida albicans ATCC 10231 (A), C. albicans ATCC 64124 (B), and C. albicans ATCC MYA-2876 (C) were kindly provided by Dr. Jon Y. Takemoto (Utah State University, Logan, UT, USA). C. albicans ATCC 90819 (D), C. albicans ATCC MYA-2310 (E), C. albicans ATCC MYA-1237 (F), C. albicans ATCC MYA-1003 (G), Candida glabrata ATCC 2001 (H), Candida krusei ATCC 6258 (I), Candida parapsilosis ATCC 22019 (J), Aspergillus flavus ATCC MYA-3631 (K), and Aspergillus terreus ATCC MYA-3633 (M) were obtained from the American Type Culture Collection (ATCC; Manassas, VA, USA). Aspergillus nidulans ATCC 38163 (L) was received from Dr. Jon S. Thorson (University of Kentucky, Lexington, KY, USA). Filamentous fungi and yeasts were cultivated at 35° C. in RPMI 1640 medium (with 1-glutamine, without sodium biocarbonate, Sigma-Aldrich, St. Louis, MO) buffered to a pH of 7.0 with 0.165 M morpholinepropanesulfonic acid (MOPS) buffer (Sigma-Aldrich).
# (§3) The MIC values of compounds 7a-24c against yeast cells (strains A-J) were determined in 96-well plates as described in the CLSI document M27-A3 with minor modifications. A single colony of freshly prepared yeast cells was used to inoculate 5 mL of yeast extract peptone dextrose (YPD) broth prior to incubation overnight with shaking at 200 rpm at 35° C. From the actively growing yeast culture, 100 μL were then transferred to 900 μL of sterile ddH2O and re-adjusted to achieve OD600 of 0.12 (˜1×10^6 CFU/mL). The cell suspension was further diluted to achieve 2-4×10^3 CFU/mL in RPMI 1640 medium. […] The final concentration of DMSO was ensured to be <1.25% in all experiments. The MIC values for compounds 7a-24c and CAS were defined as the minimum drug concentration that yielded complete inhibition (also known as MIC-0).
# [2] = test system: C. albicans ATCC MYA-1237(R) (strain F); experiment: as above; format: cell-based, Candida albicans; details: MIC-0, 48 h at 35° C.
# Experimental: as §1, §2, §3
# [3] = test system: C. albicans ATCC MYA-2310(S) (strain E); experiment: as above; format: cell-based, Candida albicans; details: MIC-0, 48 h at 35° C.
# Experimental: as §1, §2, §3
# [4] = test system: C. albicans ATCC 64124(R) (strain B); experiment: as above; format: cell-based, Candida albicans; details: strain B, MIC-0, 48 h at 35° C.
# Experimental: as §1, §2, §3
# [5] = test system: Candida albicans ATCC 10231(R) (strain A); experiment: as above; format: cell-based; details: MIC-0 (no visible growth), 48 h at 35° C.
# Experimental: as §1, §2, §3
# [6] = test system: Candida parapsilosis ATCC 22019 (strain J); experiment: as above; format: cell-based; details: strain J, MIC-0, 48 h at 35° C.
# Experimental: as §1, §2, §3
# [7] = test system: murine red blood cells (mRBCs); details: for Percentage of hemolysis (±SDEV): mouse, 60 min
# Experimental: Thus, the hemolytic activity for these bishydrazones was investigated against murine red blood cells (mRBCs).
# Murine red blood cells (mRBCs) were prepared by suspending 1 mL of murine blood in 3 mL of PBS prior to centrifugation at 1,000 rpm for 5 min. The mRBCs were washed four times in PBS and resuspended in the same buffer to a final concentration of 10^7 mRBC/mL. […] The tubes were incubated at 37° C. for 60 min. […] Eppendorf tubes containing 200 μL of ddH2O and 2 μL of 1% v/v Triton™ X-100 served as negative (blank) and positive controls, respectively. The percentage of hemolysis was calculated using the following equation: % hemolysis=[(absorbance of sample)−(absorbance of blank)]×100/(absorbance of positive control).
# [8] = test system: Candida krusei ATCC 6258 (strain I); experiment: MIC determination, in vitro antifungal assay (CLSI M27-A3); format: cell-based; details: MIC-0, 48 h at 35° C.
# Experimental: as §1, §2
# (§4) A single colony of freshly prepared yeast cells was used to inoculate 5 mL of yeast extract peptone dextrose (YPD) broth prior to incubation overnight with shaking at 200 rpm at 35° C. From the actively growing yeast culture, 100 μL were then transferred to 900 μL of sterile ddH2O and re-adjusted to achieve OD600 of 0.12 (˜1×10^6 CFU/mL). The cell suspension was further diluted to achieve 2-4×10^3 CFU/mL in RPMI 1640 medium. […] The final concentration of DMSO was ensured to be <1.25% in all experiments.
# [9] = test system: Candida glabrata ATCC 2001 (strain H); experiment: as above; format: cell-based; details: MIC-0, 48 h at 35° C.
# Experimental: as §1, §2, §4
# [10] = test system: C. albicans ATCC MYA-2876(S) (strain C); experiment: as above; format: cell-based, Candida albicans; details: MIC-0, 48 h at 35° C.
# Experimental: as §1, §2, §4
# [11] = test system: C. albicans ATCC MYA-1003(R) (strain G); experiment: as above; format: cell-based, Candida albicans; details: MIC-0, 48 h at 35° C.
# Experimental: as §1, §2, §4
# [12] = test system: Aspergillus flavus ATCC MYA-3631 (strain K); experiment: MIC determination against filamentous fungi (CLSI M38-A2); format: cell-based; details: MIC-0, 48 h at 35° C.
# Experimental: as §1, §2
# (§5) Similarly, the MIC values of compounds 7a-24c, as well as that of the two control drugs against filamentous fungi (strains K-M) were determined as previously described in CLSI document M38-A2. Spores were harvested from sporulating cultures growing on potato dextrose agar (PDA) by filtration through sterile glass wool and enumerated by using a hemocytometer to obtain the desired inoculum size. […] Spore suspensions were added to the wells to afford a final concentration of 5×10^5 CFU/mL. The plates were incubated at 35° C. for 48 h. The MIC values of compounds 7a-24c and CAS against filamentous fungi were based on the complete inhibition of growth when compared to the growth control (MIC-0). […] Each test was performed in triplicate.
# [13] = test system: Aspergillus terreus ATCC MYA-3633 (strain M); experiment: as above; format: cell-based; details: Aspergillus terreus, 48 h, MIC-0, 48 h at 35° C., read-out: MIC
# Experimental: as §1, §2, §5
# [14] = test system: Aspergillus nidulans ATCC 38163 (strain L); experiment: as above; format: cell-based; details: MIC-0, 48 h at 35° C.
# Experimental: as §1, §2, §5
# [15] = Candida albicans, 48 h, read-out: MIC
# [16] = Candida albicans, ATCC64124, 48 h, read-out: MIC
# [17] = Candida albicans, ATCC10231, 48 h, read-out: MIC
# [18] = Lodderomyces parapsilosis, ATCC22019, 48 h, read-out: MIC
# [19] = Pichia kudriavzevii, ATCC6258, 48 h, read-out: MIC
# [20] = Nakaseomyces glabratus, ATCC2001, 48 h, read-out: MIC
# [21] = Aspergillus flavus, 48 h, read-out: MIC
# [22] = Aspergillus nidulans, ATCC38163, 48 h, read-out: MIC
SMILES,MIC [1],"MIC [2, 15]","MIC [3, 15]","MIC [4, 16]","MIC [5, 17]","MIC [6, 18]",hemolytic activity (in words) [7],Percentage of hemolysis (±SDEV) ([7]; 0.975 μg/mL),Percentage of hemolysis (±SDEV) ([7]; 1.95 μg/mL),Percentage of hemolysis (±SDEV) ([7]; 3.9 μg/mL),Percentage of hemolysis (±SDEV) ([7]; 7.8 μg/mL),Percentage of hemolysis (±SDEV) ([7]; 15.6 μg/mL),Percentage of hemolysis (±SDEV) ([7]; 31.3 μg/mL),"MIC [8, 19]","MIC [9, 20]","MIC [10, 15]","MIC [11, 15]","MIC [12, 21]",MIC [13],"MIC [14, 22]",further results
C(=N\Nc1ccccc1)/c1ccc(-c2ccc(/C=N/Nc3ccccc3)cc2)cc1 [Compound 7b],31.3 µg/mL,> 31.3 µg/mL,> 31.3 µg/mL,> 31.3 µg/mL,7.8 µg/mL,> 31.3 µg/mL,lack of hemolytic activity,0.1 ± 0.1%,3.7 ± 1.6%,3.4 ± 1.7%,2.9 ± 1.1%,14.1 ± 6.0%,10.8 ± 0.6%,> 31.3 µg/mL,> 31.3 µg/mL,> 31.3 µg/mL,> 31.3 µg/mL,1.95 to 3.9 µg/mL,15.6 µg/mL,1.95 to 3.9 µg/mL,MIC [12]: 3.9 µg/mL; MIC [14]: 1.95 µg/mL
Fc1cccc(N/N=C/c2ccc(-c3ccc(/C=N/Nc4cccc(F)c4)cc3)cc2)c1 [Compound 12b],> 31.3 µg/mL,> 31.3 µg/mL,> 31.3 µg/mL,> 31.3 µg/mL,7.8 to 15.6 µg/mL,3.9 µg/mL,lack of hemolytic activity,0.8 ± 0.9%,0%,3.2 ± 3.0%,2.6 ± 1.6%,7.7 ± 3.1%,10.3 ± 0.2%,7.8 to 15.6 µg/mL,> 31.3 µg/mL,> 31.3 µg/mL,> 31.3 µg/mL,31.3 µg/mL,> 31.3 µg/mL,> 31.3 µg/mL,MIC [5]: 7.8 µg/mL; MIC [6]: 3.9 µg/mL; MIC [8]: 15.6 µg/mL
"CC[C@H](C)C[C@H](C)CCCCCCCCC(=O)N[C@H]1C[C@@H](O)[C@@H](NCCN)NC(=O)[C@@H]2[C@@H](O)CCN2C(=O)[C@H]([C@H](O)CCN)NC(=O)[C@H]([C@H](O)[C@@H](O)c2ccc(O)cc2)NC(=O)[C@@H]2C[C@@H](O)CN2C(=O)[C@H]([C@@H](C)O)NC1=O [CAS, caspofungin, reference compound]",0.12 µg/mL,0.24 µg/mL,0.12 µg/mL,0.24 µg/mL,0.975 µg/mL,1.95 µg/mL,–,–,–,–,–,–,–,0.48 µg/mL,0.06 µg/mL,0.06 µg/mL,0.48 µg/mL,> 31.3 µg/mL,> 31.3 µg/mL,> 31.3 µg/mL,–
COc1ccc(N/N=C(\C)c2ccc(-c3ccc(/C(C)=N/Nc4ccc(OC)cc4)cc3)cc2)cc1 [Compound 15c],31.3 µg/mL,7.8 to 15.6 µg/mL,7.8 to 15.6 µg/mL,7.8 to 15.6 µg/mL,7.8 to 15.6 µg/mL,> 31.3 µg/mL,–,–,–,–,–,–,–,7.8 to 15.6 µg/mL,7.8 to 15.6 µg/mL,7.8 to 15.6 µg/mL,7.8 to 15.6 µg/mL,> 31.3 µg/mL,> 31.3 µg/mL,> 31.3 µg/mL,MIC [2]: 7.8 µg/mL; MIC [3]: 15.6 µg/mL; MIC [4]: 15.6 µg/mL; MIC [5]: 15.6 µg/mL; MIC [8]: 15.6 µg/mL; MIC [9]: 7.8 µg/mL; MIC [10]: 15.6 µg/mL; MIC [11]: 7.8 µg/mL
